Results taken from patent EP0548931A1, “Material for controlling pests” (SUMITOMO CHEMICAL COMPANY, LIMITED, priority 1991, dated 1993).

Tests used:
sweetpotato whiteflies = assay: Test Example 2: yellow cloth material (Production Example 2), pest-controlling effect, count of adults; type: in vivo, Bemisia tabaci; conditions: 0.16 mg/cm²
Procedure: 0.4 Part of the insect growth regulator is dissolved in 40 parts of acetone and further 0.8 part of rape seed oil is added thereto. Thirty-one milliliters of the resulting solution is absorbed in a yellow cloth of 21 cm x 92 cm in size. Acetone is then vaporized to obtain a material for controlling pests containing 0.16 mg/cm² of the active ingredient. A material for controlling pests with pyriproxyfen as insect growth regulator was prepared according to Production Example 2. It was set at the same height as that of a container (80 cm x 112 cm x 45 cm) in which tomato having greenhouse whiteflies parasitized thereon had been planted. On the other hand, a yellow cloth containing no insect growth regulator was set as a control at a distance of about 8 m. On the predetermined day, the number of greenhouse whitefly adults parasitized on the tomato was counted. Table 1 In the same manner as in Test Example 1, the pest-controlling effect on sweetpotato whiteflies was examined.

Thrips palmi = assay: Test Example 3: blue cloth material (Production Example 3) in glass vessel with cucumber seedlings, count of adults; type: in vivo; conditions: 0.16 mg/cm², 28° ±1°C
Procedure: The same procedure as in Production Example 2 is repeated except that a blue cloth replaces the yellow cloth, to obtain a material for controlling pests containing 0.16 mg/cm² of the active ingredient.
Soil was placed on the bottom of a glass vessel of 70 cm x 35 cm x 35 cm in size. Three cucumber seedlings, on which Thrips palmi had been parasitized, were planted at the central part of the glass vessel. After three days, a material for controlling pests with pyriproxyfen as insect growth regulator prepared according to Production Example 3 was formed into a size of 15 cm x 15 cm and set at a height of 5 cm above the ground. On the other hand, the same test was carried out using a blue cloth containing no insect growth regulator as a control.
On the predetermined day, the number of Thrips palmi adults parasitized on the cucumbers was counted. The tests were carried out in a room kept at 28° ±1°C.

sweetpotato whitefly [1] = assay: Test Example 4: yellow cloth with cotton seed oil solution in net cage, hatching inhibitory effect on eggs; type: in vivo, Bemisia tabaci; conditions: after 48 hours, kidney bean
Procedure: Materials for controlling pests containing pyriproxyfen in amounts of 5.3 mg/cm², 2.7 mg/cm² and 0.5 mg/cm², respectively, were prepared by dissolving the corresponding amounts of pyriproxyfen in a cotton seed oil and coating every solution thus obtained onto a yellow cloth of 15 cm x 15 cm in size to allow the cloth to absorb the solution. Every cloth was set on one wall surface of a nylon net cage (30 cm x 30 cm x 30 cm). Kidney bean planted in a pot was placed at the center of the cage, and sweetpotato whitefly adults were released in the cage. After 48 hours, the hatching inhibitory effect on eggs from the adults was examined.

sweetpotato whitefly [2] = assay: Test Example 6: spray-coated yellow Kent paper (Production Example 5) in net cage, hatching inhibition; type: in vivo, Bemisia tabaci; conditions: yellow Kent paper 15 cm x 15 cm, 1 g/m², spray-coated from acetone; eggs laid on kidney bean
Procedure: One part of the insect growth regulator is dissolved in 99 parts of acetone. One hundred grams of the resulting solution is spray-coated onto a square yellow Kent paper having a side of 100 cm to obtain a material for controlling pests containing 1 g/m² of the active ingredient. A material for controlling pests with pyriproxyfen as insect growth regulator prepared according to Production Example 5 was formed into a size of 15 cm x 15 cm. It was set on one wall surface of a nylon net cage of 30 cm x 30 cm x 30 cm in size. About 100 adults of sweetpotato whitefly were released in the cage together with kidney bean on which the adults had been parasitized. One day after release of the adults, a potted kidney bean having no adults parasitized thereon was set in the cage for oviposition. Among the eggs laid on the potted kidney bean until the next day, the number of unhatched eggs was counted.

sweetpotato whitefly [3] = assay: Test Example 7: yellow Kent paper (Production Example 6) in net cage, hatching inhibition; type: in vivo, Bemisia tabaci; conditions: yellow Kent paper 15 cm x 15 cm, 5 g/m², cotton seed oil, tetradecane, Span 85; eggs laid on kidney bean
Procedure: Five parts of the insect growth regulator is dissolved in 65 parts of a vegetable oil, and then 20 parts of a mineral oil and 10 parts of a surface active agent are added thereto and mixed. 2.25 Grams of the resulting solution is absorbed in a square yellow Kent paper having a side of 15 cm to obtain a material for controlling pests containing 5 g/m² of the active ingredient. The material for controlling pests containing pyriproxyfen (insect growth regulator), a cotton seed oil (vegetable oil), tetradecane (mineral oil) and Span 85® (surface active agent produced by ICI Americas Inc.) prepared according to Production Example 6 was formed into a size of 15 cm x 15 cm. It was set on one wall surface of a nylon net cage of 30 cm x 30 cm x 30 cm in size. About 100 adults of sweetpotato whitefly were released in the cage together with kidney bean on which the adults had been parasitized. One day after release of the adults, a potted kidney bean having no adults parasitized thereon was set in the cage for oviposition. Among the eggs laid on the potted kidney bean until the next day, the number of unhatched eggs was counted.

greenhouse whiteflies = assay: Test Example 10: yellow polyethylene sheet (Production Example 9) set beside tomato, count of adults; type: in vivo, Trialeurodes vaporariorum
Procedure: Ninety-eight parts by weight of a polyethylene resin (Sumikathene®; a registered trade mark of Sumitomo Chemical Co., Ltd.), 1 part by weight of pyriproxyfen, a juvenile hormone-like compound, and 1 part by weight of a polyethylene colored master batch for yellow coloration (SPEM 305 produced by Sumika Color Co., pigment content: 12 wt.%) are kneaded with a pressure kneader and then pelletized. The resulting pellet is extruded through an extruder equipped with a T-dies at 160° to 180°C to obtain a sheet-form material for controlling pests of 1 mm in thickness. A sheet-like material for controlling pests prepared according to Production Example 9 was formed into a size of 15 cm x 15 cm. It was set at the same height as that of a container (80 cm x 112 cm x 45 cm) in which tomato having greenhouse whiteflies parasitized thereon had been planted. On the other hand, a yellow film containing no insect growth regulator was set as a control in the same manner as in setting the above material for controlling pests. On the predetermined day, the number of greenhouse whitefly adults parasitized on the tomato was counted.

## CC(COc1ccc(Oc2ccccc2)cc1)Oc1ccccn1 (stereo not shown) [pyriproxyfen, 4-phenoxyphenyl 2-(2-pyridyloxy)propyl ether]
Sweetpotato whiteflies; 0 days elapsed after setting
  number of sweetpotato whitefly adults (pest-controlling effect): 53
Sweetpotato whiteflies; 7 days elapsed after setting
  number of sweetpotato whitefly adults (pest-controlling effect): 40
Sweetpotato whiteflies; 14 days elapsed after setting
  number of sweetpotato whitefly adults (pest-controlling effect): 35
Sweetpotato whiteflies; 18 days elapsed after setting
  number of sweetpotato whitefly adults (pest-controlling effect): 20
Sweetpotato whiteflies; 29 days elapsed after setting
  number of sweetpotato whitefly adults (pest-controlling effect): 10
Sweetpotato whiteflies; 35 days elapsed after setting
  number of sweetpotato whitefly adults (pest-controlling effect): 1
Thrips palmi; 0 days elapsed after setting, blue cloth 15 cm x 15 cm
  number of Thrips palmi adults parasitized on the cucumbers: 5
Thrips palmi; 7 days elapsed after setting, blue cloth
  number of Thrips palmi adults parasitized on the cucumbers: 5
Thrips palmi; 14 days elapsed after setting, blue cloth
  number of Thrips palmi adults parasitized on the cucumbers: 3
Thrips palmi; 21 days elapsed after setting, blue cloth
  number of Thrips palmi adults parasitized on the cucumbers: 2
Sweetpotato whitefly [1]; Pyriproxyfen 0.5 mg/cm² on yellow cloth
  Hatching inhibitory rate (%): 83.7%
Sweetpotato whitefly [1]; Pyriproxyfen 2.7 mg/cm² on yellow cloth
  Hatching inhibitory rate (%): 98.2%
Sweetpotato whitefly [1]; Pyriproxyfen 5.3 mg/cm² on yellow cloth
  Hatching inhibitory rate (%): 94.6%
Sweetpotato whitefly [2]
  Hatching inhibitory rate (%): 99.0%
Sweetpotato whitefly [3]
  Hatching inhibitory rate (%): 90.6%
Greenhouse whiteflies; 0 days elapsed after setting, yellow polyethylene sheet 1 mm, 1 part by weight pyriproxyfen, 15 cm x 15 cm
  number of greenhouse whitefly adults parasitized on the tomato (mean value per cup): 105
Greenhouse whiteflies; 7 days elapsed after setting, yellow polyethylene sheet
  number of greenhouse whitefly adults parasitized on the tomato (mean value per cup): 78
Greenhouse whiteflies; 14 days elapsed after setting, yellow polyethylene sheet
  number of greenhouse whitefly adults parasitized on the tomato (mean value per cup): 75
Greenhouse whiteflies; 18 days elapsed after setting, yellow polyethylene sheet
  number of greenhouse whitefly adults parasitized on the tomato (mean value per cup): 50
Greenhouse whiteflies; 28 days elapsed after setting, yellow polyethylene sheet
  number of greenhouse whitefly adults parasitized on the tomato (mean value per cup): 20
Greenhouse whiteflies; 35 days elapsed after setting, yellow polyethylene sheet
  number of greenhouse whitefly adults parasitized on the tomato (mean value per cup): 10
Greenhouse whiteflies; 42 days elapsed after setting, yellow polyethylene sheet
  number of greenhouse whitefly adults parasitized on the tomato (mean value per cup): 3
